Experimental data published in a melting point compilation (Tetko et al.; mined from patent text by program, amines drawn as free bases though some values may be those of a salt).

| SMILES | melting point [°C] |
| --- | --- |
| O=C(Nc1cccnc1S(=O)(=O)c1ccccc1)N[C@@H](Cc1ccc(NC(=O)c2c(Cl)cccc2Cl)cc1)C(=O)O | 181 |
| ClCCC1(CCCl)c2ccccc2Sc2ccccc21 | 61 to 62 |
| CC(=O)Oc1ccc(S(=O)(=O)ON=C2CCCc3ccccc32)cc1 | 151 to 152 |
| CN1CCN(Cc2cccc(-c3cc4c(Nc5ccc6[nH]ccc6c5)c(C#N)cnc4s3)c2)CC1 | 128 to 130 |
| Cn1nc(C(F)(F)F)cc1Oc1cc(C#N)cc(-c2cc(C(F)(F)F)nn2C)n1 | 164 to 165 |
| CCCC(=O)NCCC1CCc2c(OC)ccc3ccc(OC)c1c23 (configuration not stated) | 99 |
| Cc1cc(C(=O)c2cccc(Cc3ccccc3)c2)c(O)c2ncccc12 | 123 to 124 |
| CSc1nc2sccc2c2nnc(SCc3ccccc3)n12 | 209 to 211 |
| O=C(O)Cc1ccc(NC(=O)C(COc2ccccc2)NS(=O)(=O)c2ccc(Br)cc2)cc1 (racemic) | 201 to 204 |
| COc1ccc(Cl)cc1C1(O)C(=O)Nc2cc(C(F)(F)F)ccc21 (configuration not stated) | 207 to 210 |
| O=C(O)Cc1c(Cl)nc(-c2ccc(O)cc2)n1Cc1ccccc1 | 140 to 145 |
| N#CCN1C(=O)SC(=Cc2ccc(OCCc3ccccc3)cc2)C1=O | 155 to 157 |
| C=C(CC(=O)c1ccc(C)cc1)C(=O)O | 137 to 138 |
| COc1ccc(-c2ccc3c(c2)CCc2nn(-c4ccccn4)c(O)c2-3)cc1 | 159 to 160 |
| O=C1C[C@@H]2[C@@H](/C=C/[C@H](O)CCc3ccccc3)[C@H](OC(=O)c3ccc(-c4ccccc4)cc3)C[C@@H]2O1 | 81 to 83 |
| CONC(=O)c1cc(C)c(C(c2cc(F)ccc2F)S(=O)(=O)c2ccc(F)cc2)cn1 (configuration not stated) | 231 to 234 |
| Cn1ccnc1COc1cc(Cl)ncn1 | 126 to 128 |
| Cn1ccc2cccc(C3=C(c4c[nH]c5c(CCCO)cccc45)C(=O)NC3=O)c21 | 183 to 185 |
| O=C1NCC=C2N=CN=C12 | 242 to 245 |
| O=C(c1cc2cc3[nH]c(=O)oc3cc2[nH]1)N1CCC(Cc2ccccc2)CC1 | 270 to 271 |
| C=C(C)COc1ccc(Br)cc1CN(CC)c1ccc(C(=O)NS(=O)(=O)c2c(C)noc2C)nn1 | 120 |
| Cc1ccc2c(Cl)cc(C(=O)NCCCc3ccccc3)c(O)c2n1 | 109 to 111 |
| Cc1csc(-c2ccc(C(=O)Nc3ccc4cc(CN5CCCC5)cnc4c3C)cc2)c1 | 224 to 225 |
| COc1cccc(C(F)(F)F)c1O | 51 to 53 |

| SMILES | melting point [°C] |
| --- | --- |
| Cc1ccccc1C(CCC(=O)O)Oc1cc(OCc2ccsc2)ccc1-c1cc(C(=O)O)on1 (racemic) | 162 to 164 |
| CC(C)(C)C(=O)NCc1cc(-c2ccc(Cl)c(Cl)c2)n(Cc2ccc(Cl)c(Cl)c2)n1 | 56.5 |
| CNC(=O)NC(=O)N1CCN(c2ccccc2)CC1 | 198 to 200 |
| O=C(Nc1n[nH]c(=S)s1)NC(Cc1ccccc1)C(=O)NCc1ccc2c(c1)OCO2 (configuration not stated) | 213 |
| CCN(CC)C(=O)c1ccnc(Br)c1 | 200 to 203 |
| O=CCCNC(=O)c1ccc[nH]1 | 88 to 90 |
| CCOC(=O)c1cc2cc(C)c(C)cc2[nH]1 | 164 |
| CCOC(=O)c1cnn(-c2ccc(OC)c(C#N)c2)c1 | 192 to 193 |
| CCNC(=S)NNC(=O)C(F)(F)F | 170 |
| Nc1nc(NCCN2CCOCC2)nc2nc(-c3ccco3)nn12 | 242 to 244 |
| Cc1nc(NC(=O)NS(=O)(=O)c2ccccc2C(=O)O)nc2c1CCC2 | 183 to 184 |
| COc1ccc(-c2ccc3nccn3c2)cc1-c1ccc2nonc2c1 | 190 to 196 |
| CCc1nc2c(C)cc(C)nc2n1Cc1ccc(-c2ccccc2-c2nc(=O)o[nH]2)cc1 | 149 to 152 |
| CC1C(=O)N(c2ccc([N+](=O)[O-])cc2)C(=S)N1c1ccc(Cc2ccccc2)cc1 (configuration not stated) | 200 |
| CCOC(=O)C(C#N)=NOC(=O)OCC(C)C | 60 to 62 |
| Cc1ccc2nc(-c3ccccc3)nc(Cl)c2c1 | 111 to 113 |
| Cn1ccc(CNC(=O)c2ccnc(N3CCN(Cc4ccc(F)cc4)C3=O)c2)n1 | 79 to 81 |
| COC(=O)C1=NN(c2ccccc2)C(C(=O)OC)=NN1c1ccccc1 | 171 to 172 |
| CN(CC(=O)[C@H](Cc1ccccc1)NC(=O)N1CCCCC1)C(=O)N1CCC[C@H]1C(=O)O | 69 to 72 |
| COc1cc2c(Nc3ccc(Br)cc3F)ncnc2cc1OCCCS(C)(=O)=O | > 250 |
| CCS(=O)(=O)CC=Cc1ccccc1 | 100 |
| CCOC(=O)COc1cc(C(C)(C)C)c(SC2=C(O)CC(CCc3ccc(O)cc3)(CCc3ccc(O)cc3)OC2=O)cc1C | 162 to 163 |
| N#CCOC(=O)CCCCc1c[nH]c2ccccc12 | 76 |
| Cn1nc(-c2ccc(Cl)cc2Cl)cc1OC(F)F | 35 |

| SMILES | melting point [°C] |
| --- | --- |
| O=C(c1ccc(-c2cnc3c(c2)N(Cc2c(F)ccc(F)c2Cl)CCN3)cc1)N1CCC(N2CCCC2)CC1 | 93 to 95 |
| COC/C=C(C)/C=C/C(F)=C(C)/C=C/c1c(C)sc(C)c1C | 117 to 118 |
| CCOC(=O)c1cc(Br)c2oc(C)c(C)c2c1 | 110 to 111 |
| CCCn1c(=Nc2ccccc2)sc2ncccc2c1=O | 94 to 95 |
| Cn1cnc2c1c(=O)n(CCCCCCOc1ccc(Cl)cc1)c(=O)n2C | 97 to 98 |
| CCOCc1nc2c(N)nc3ccccc3c2n1CCOCCNS(=O)(=O)C(C)C | 139 to 142 |
| Cc1ccn2c(C)c(CCc3ccc4nc(C)oc4c3)nc2c1 | 83 to 85 |
| CC12CCC(=O)C=C1C(=O)CC1C2CCC2(C)C(c3cccnc3)=CCC12 (configuration not stated) | 210 to 212 |
| CCCn1c(=O)cc(NNC(=S)NC(C)=O)n(Cc2ccccc2)c1=O | 184 to 185 |
| Cc1oc(=O)oc1Cn1nnc(-c2ccnc(-c3nnn(Cc4oc(=O)oc4C)n3)c2)n1 | 150 to 152 |
| CCOCc1nc2c(N)nc3cc(-c4cccnc4)ccc3c2n1CC(C)C | 180 to 182 |
| C#CCCCCCCCCCCCCCCCCCCCCO | 64 to 70 |
| Cc1ncnc2c1ncn2[C@H](C)[C@](O)(Cn1cncn1)c1ccc(F)cc1F | 200 to 201 |
| CCc1c(C(=O)O)nn(-c2ccc(Cl)cc2Cl)c1-c1ccc(Cl)s1 | 207 to 208 |
| CC1(C)C=C(c2ccccn2)c2ccccc2O1 | 80 to 82 |
| Clc1ccc(N2CCN(Cc3cn4cc(Br)ccc4n3)CC2)c(Cl)c1 | 137 to 138 |
| CCOC(=O)C=C(C)C=CC=O | 49 to 50 |
| COc1cc2sc(/C=C(\Oc3ccc(C(C)C)cc3)C(=O)O)cc2c(Cl)c1OC | 255 to 256 |
| O=C(O)c1ncc2[nH]c3ccccc3c2n1 | 187 to 189 |
| CCOC(=O)CSc1nnc(SCCCBr)s1 | 118 to 120 |
| COc1cc(C(=O)N2Cc3ccc(C(=O)C(Cl)(Cl)Cl)n3Cc3ccccc32)ccc1-c1ccccc1C | 221 to 222 |
| O=C(O)CCCc1ccc2c(NC(=O)CC3CCCCC3)c(Cl)ccc2n1 | 216 to 220 |
| CC(=O)Nc1cc(OS(=O)(=O)c2ccc(C)cc2)nc(=N)n1OC(C)=O | 196 to 200 |
| CCOC(=O)c1ncn(Cc2ccccc2)c1OC | 127 to 128 |
